The record followed here is patent US11384063B2, “Modulators of estrogen receptor proteolysis and associated methods of use” (Arvinas Operations, Inc., priority 2017, dated 2022).

This assay concerns the target T1, ERα (Homo sapiens, UniProt P03372).
T1 sequence (P03372 1-595): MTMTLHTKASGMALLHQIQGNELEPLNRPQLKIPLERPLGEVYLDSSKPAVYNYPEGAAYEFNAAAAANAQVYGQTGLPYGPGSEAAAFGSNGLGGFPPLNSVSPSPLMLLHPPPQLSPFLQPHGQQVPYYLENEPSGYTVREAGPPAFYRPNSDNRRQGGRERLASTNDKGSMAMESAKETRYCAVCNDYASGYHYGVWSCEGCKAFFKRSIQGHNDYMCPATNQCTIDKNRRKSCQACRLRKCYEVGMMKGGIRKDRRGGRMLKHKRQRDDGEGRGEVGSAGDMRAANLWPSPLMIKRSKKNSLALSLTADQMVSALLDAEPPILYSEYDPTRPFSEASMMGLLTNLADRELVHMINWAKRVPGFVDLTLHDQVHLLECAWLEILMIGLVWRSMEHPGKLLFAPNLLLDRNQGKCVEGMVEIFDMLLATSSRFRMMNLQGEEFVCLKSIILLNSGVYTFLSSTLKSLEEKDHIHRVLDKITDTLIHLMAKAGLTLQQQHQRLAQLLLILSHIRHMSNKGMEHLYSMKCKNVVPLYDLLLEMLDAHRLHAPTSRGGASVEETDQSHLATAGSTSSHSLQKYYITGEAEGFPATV
In words: ERE luciferase reporter gene assay in T47D-KBluc cells (target engagement). In kind it is cell-based. Also on record: T47D human breast cancer cells stably transfected with estrogen responsive element/promoter/luciferase reporter gene; host or cells: T47D-KBluc cells. The conditions noted are these: 10% FBS, 24 hours, Table 1 cereblon centric PROTACs, read-out: ER-α Luciferase IC50. The method, then:
Chimeric molecules were assessed for target engagement in T47D cells using the commercial kit of ERE luciferase reporter gene assay. In the assay, 10% FBS was included and estrogen level was measured to be 10 pM.
ERE Luciferase Assay for Compounds in Table 1-3.
T47D-KBluc cells (ATCC #CRL_2865, T47D human breast cancer cells stably transfected with estrogen responsive element/promoter/luciferase reporter gene) were seeded into 96-well white opaque plates in RPMI growth medium supplemented with 10% fetal bovine serum and allowed to adhere overnight in a 37° C. humidified incubator. The following day, cells were treated with PROTACs in a 12-point concentration curve (top final concentration of 300 nM with subsequent concentrations being 3-fold less with 2 pM being the lowest concentration in the assay). Each PROTAC was tested independently in two experiments on 96-well plates. After 24 hours, media was removed and lysis buffer was added to the wells. Following lysis, Bright-Glo™ Luciferase Assay Substrate (Prornega, Madison Wis.) was added and the luciferase activity was measured using a Cytation 3 plate reader (TioTek™, Winooski, Vt.). Each compound was assayed in duplicates and the activity was calculated as IC50 using GraphPad Prism software (San Diego, Calif.).
Background: In a reporter assay the amount or activity of a reporter protein is the signal.
By IC50 is commonly meant the concentration that inhibits the measured activity by half. Turning to `O=C(CN1CCN(CCOc2ccc(Oc3c(-c4ccc(Br)cc4)sc4cc(O)ccc34)cc2)CC1)NCc1ccc2c(c1)CN(C1CCC(=O)NC1=O)C2=O` (centres unmarked) [Compound 1], the IC50 is 12.7 nM.
With `O=C1CCC(N2Cc3c(NCCN4CCN(CCOc5ccc(Oc6c(-c7ccccc7)sc7cc(O)ccc67)cc5)CC4)cccc3C2=O)C(=O)N1` (centres unmarked) [Compound 2], the IC50 came out at 0.36 nM.
As to `O=C1CCC(N2C(=O)c3cccc(NCCN4CCN(CCOc5ccc(Oc6c(-c7ccc(O)cc7)sc7cc(O)ccc67)cc5)CC4)c3C2=O)C(=O)N1` (centres unmarked) [Compound 3], the IC50 was 0.14 nM.
On to `O=C1CCC(N2Cc3c(NCCN4CCN(CCOc5ccc(Oc6c(-c7ccc(O)cc7)sc7cc(O)ccc67)cc5)CC4)cccc3C2=O)C(=O)N1` (centres unmarked) [Compound 4], for which the IC50 turned out to be 0.09 nM.
On to `O=C1CCC(N2Cc3c(NCCN4CCN(CCOc5ccc(Oc6c(-c7ccc(Br)cc7)sc7cc(O)ccc67)cc5)CC4)cccc3C2=O)C(=O)N1` (centres unmarked) [Compound 5], for which the IC50 amounted to 0.9 nM.
For `O=C1CCC(N2C(=O)c3cccc(NCCN4CCN(CCOc5ccc(Oc6c(-c7ccc(Br)cc7)sc7cc(O)ccc67)cc5)CC4)c3C2=O)C(=O)N1` (centres unmarked) [Compound 6] the value was 1.3 nM; for `O=C1CCC(N2Cc3c(OCCN4CCN(CCOc5ccc(Oc6c(-c7ccc(Br)cc7)sc7cc(O)ccc67)cc5)CC4)cccc3C2=O)C(=O)N1` (centres unmarked) [Compound 7], 1.1 nM; for `O=C1CC[C@H](N2Cc3cc(OCC(=O)N4CCN(CCOc5ccc(Oc6c(-c7ccc(Br)cc7)sc7cc(O)ccc67)cc5)CC4)ccc3C2=O)C(=O)N1` [Compound 8], 1.9 nM.
`O=C1CC[C@@H](N2Cc3c(OCc4ccc(CN5CCN(CCOc6ccc(Oc7c(-c8ccc(Br)cc8)sc8cc(O)ccc78)cc6)CC5)nc4)cccc3C2=O)C(=O)N1` [Compound 9]: the IC50 is 2.9 nM.
Turning to `O=C1CCC(N2C(=O)c3cccc(NCCN4CCN(CCOc5ccc(Oc6c(-c7ccccc7)sc7cc(O)ccc67)cc5)CC4)c3C2=O)C(=O)N1` (centres unmarked) [Compound 10], the IC50 is 0.63 nM.
Regarding `C[C@H](COc1ccc(Oc2c(-c3ccc(Br)cc3)sc3cc(O)ccc23)cc1)N1CCN(CC(=O)NCc2ccc3c(c2)CN(C2CCC(=O)NC2=O)C3=O)CC1` (stereo partly drawn) [Compound 11, 2-{4-[(2R)-1-(4-{[2-(4-bromophenyl)-6-hydroxy-1-benzothiophen-3-yl]oxy}phenoxy)propan-2-yl]piperazin-1-yl}-N-{[2-(2,6-dioxopiperidin-3-yl)-1-oxo-2,3-dihydro-1H-isoindol-5-yl]methyl}acetamide], the IC50 worked out at 2.6 nM.
For `C[C@@H](COc1ccc(Oc2c(-c3ccc(Br)cc3)sc3cc(O)ccc23)cc1)N1CCN(CC(=O)NCc2ccc3c(c2)CN(C2CCC(=O)NC2=O)C3=O)CC1` (some centres unmarked) [Compound 12] the value was 2.5 nM.
Then `C[C@H](COc1ccc(Oc2c(-c3ccc(Br)cc3)sc3cc(O)ccc23)cc1)N1CCN(CCOc2cccc3c2CN(C2CCC(=O)NC2=O)C3=O)CC1` (some centres unmarked) [Compound 13], with 1.3 nM.
Take `Cc1nc2c(NCCN3CCN(CCOc4ccc(Oc5c(-c6ccc(Br)cc6)sc6cc(O)ccc56)cc4)CC3)cccc2c(=O)n1C1CCC(=O)NC1=O` (centres unmarked) [Compound 14]: the IC50 amounted to 17.7 nM.
Take `C[C@@H](COc1ccc(Oc2c(-c3ccc(Br)cc3)sc3cc(O)ccc23)cc1)N1CCN(CCOc2cccc3c2CN(C2CCC(=O)NC2=O)C3=O)CC1` (some centres unmarked) [Compound 15]: the IC50 was 1.7 nM.
For `Cc1nc2c(OCCN3CCN(CCOc4ccc(Oc5c(-c6ccc(Br)cc6)sc6cc(O)ccc56)cc4)CC3)cccc2c(=O)n1C1CCC(=O)NC1=O` (centres unmarked) [Compound 16] the value was 8.8 nM.
Take `O=C1CCC(N2Cc3c(OCCOCCOc4ccc(Oc5c(-c6ccc(Br)cc6)sc6cc(O)ccc56)cc4)cccc3C2=O)C(=O)N1` (centres unmarked) [Compound 17]: the IC50 was determined as 2.9 nM.
Take `O=C1CCC(N2Cc3c(NCCOCCOCCOCCOCCOc4ccc(Oc5c(-c6ccc(Br)cc6)sc6cc(O)ccc56)cc4)cccc3C2=O)C(=O)N1` (centres unmarked) [Compound 18]: the IC50 was determined as 81.4 nM.
Turning to `O=C1CCC(N2Cc3c(OCCOCCOCCOc4ccc(Oc5c(-c6ccc(Br)cc6)sc6cc(O)ccc56)cc4)cccc3C2=O)C(=O)N1` (centres unmarked) [Compound 19], the IC50 was 8.9 nM.
`O=C1CCC(N2C(=O)c3cccc(NCCOCCOCCOCCOCCOc4ccc(Oc5c(-c6ccc(Br)cc6)sc6cc(O)ccc56)cc4)c3C2=O)C(=O)N1` (centres unmarked) [Compound 20]: the IC50 is 39.9 nM.
As for `O=C1CCC(N2Cc3c(OCCOCCOCCOCCOc4ccc(Oc5c(-c6ccc(Br)cc6)sc6cc(O)ccc56)cc4)cccc3C2=O)C(=O)N1` (centres unmarked) [Compound 21], the IC50 was determined as 17.4 nM.
Then `O=C1CCC(N2Cc3c(NCCOCCOCCOCCOc4ccc(Oc5c(-c6ccc(Br)cc6)sc6cc(O)ccc56)cc4)cccc3C2=O)C(=O)N1` (centres unmarked) [Compound 22], with 41.4 nM; and `O=C1CCC(N2C(=O)c3cccc(NCCOCCOCCOCCOc4ccc(Oc5c(-c6ccc(Br)cc6)sc6cc(O)ccc56)cc4)c3C2=O)C(=O)N1` (centres unmarked) [Compound 23], with 22.4 nM.
For `O=C1CCC(N2Cc3c(NCCOCCOCCOc4ccc(Oc5c(-c6ccc(Br)cc6)sc6cc(O)ccc56)cc4)cccc3C2=O)C(=O)N1` (centres unmarked) [Compound 24] the value was 16.8 nM; for `O=C1CCC(N2Cc3c(OCCOCCOCCOCCOCCOc4ccc(Oc5c(-c6ccc(Br)cc6)sc6cc(O)ccc56)cc4)cccc3C2=O)C(=O)N1` (centres unmarked) [Compound 25], 8.6 nM; for `O=C1CCC(N2C(=O)c3cccc(NCCOCCOCCOc4ccc(Oc5c(-c6ccc(Br)cc6)sc6cc(O)ccc56)cc4)c3C2=O)C(=O)N1` (centres unmarked) [Compound 26], 9.7 nM.
Regarding `O=C1CCC(N2Cc3c(NCCOCCOc4ccc(Oc5c(-c6ccc(Br)cc6)sc6cc(O)ccc56)cc4)cccc3C2=O)C(=O)N1` (centres unmarked) [Compound 27], the IC50 was determined as 8.3 nM.
On to `O=C1CCC(N2Cc3c(OCCOc4ccc(Oc5c(-c6ccc(Br)cc6)sc6cc(O)ccc56)cc4)cccc3C2=O)C(=O)N1` (centres unmarked) [Compound 28], for which the IC50 was determined as 2.7 nM.
As to `O=C1CCC(N2C(=O)c3cccc(NCCOCCOc4ccc(Oc5c(-c6ccc(Br)cc6)sc6cc(O)ccc56)cc4)c3C2=O)C(=O)N1` (centres unmarked) [Compound 29], the IC50 was 19.2 nM.
In the case of `O=C1CCC(N2Cc3cc(OCCN4CCN(CCOc5ccc(Oc6c(-c7ccc(Br)cc7)sc7cc(O)ccc67)cc5)CC4)ccc3C2=O)C(=O)N1` (centres unmarked) [Compound 30], the IC50 stood at 1.3 nM.
Regarding `O=C1CCC(N2C(=O)c3cccc(NCCOc4ccc(Oc5c(-c6ccc(Br)cc6)sc6cc(O)ccc56)cc4)c3C2=O)C(=O)N1` (centres unmarked) [Compound 32], the IC50 was 8.2 nM.
In the case of `O=C1CCC(N2Cc3cc(OCCCN4CCN(CCOc5ccc(Oc6c(-c7ccc(Br)cc7)sc7cc(O)ccc67)cc5)CC4)ccc3C2=O)C(=O)N1` (centres unmarked) [Compound 34], the IC50 is 1 nM.
For `O=C1CCC(N2Cc3cc(OCCCOCCCOc4ccc(Oc5c(-c6ccc(Br)cc6)sc6cc(O)ccc56)cc4)ccc3C2=O)C(=O)N1` (centres unmarked) [Compound 35] the value was 9.9 nM; for `O=C1CCC(N2Cc3cc(OCCCOCCCOCCCOc4ccc(Oc5c(-c6ccc(Br)cc6)sc6cc(O)ccc56)cc4)ccc3C2=O)C(=O)N1` (centres unmarked) [Compound 36], 4.7 nM; for `O=C1CCC(N2Cc3c(OCCN4CC5(CN(CCOc6ccc(Oc7c(-c8ccc(Br)cc8)sc8cc(O)ccc78)cc6)C5)C4)cccc3C2=O)C(=O)N1` (centres unmarked) [Compound 37], 4.2 nM.
On to `O=C1CC[C@@H](N2Cc3cc(OCCN4C[C@H]5C[C@@H]4CN5CCOc4ccc(Oc5c(-c6ccc(Br)cc6)sc6cc(O)ccc56)cc4)ccc3C2=O)C(=O)N1` [Compound 38], for which the IC50 came out at 1.1 nM.
`O=C1CCC(N2Cc3cc(OCCOCCOCCOc4ccc(Oc5c(-c6ccc(Br)cc6)sc6cc(O)ccc56)cc4)ccc3C2=O)C(=O)N1` (centres unmarked) [Compound 39]: the IC50 came to 3.1 nM.
For `O=C1CCC(N2Cc3cc(OCCCOCCOc4ccc(Oc5c(-c6ccc(Br)cc6)sc6cc(O)ccc56)cc4)ccc3C2=O)C(=O)N1` (centres unmarked) [Compound 40], the IC50 came out at 3.9 nM.
For `O=C1CC[C@H](N2Cc3cc(OCCN4CC5(CN(CCOc6ccc(Oc7c(-c8ccc(Br)cc8)sc8cc(O)ccc78)cc6)C5)C4)ccc3C2=O)C(=O)N1` [Compound 41] the value was 2.4 nM; for `O=C1CC[C@H](N2Cc3cc(OCCN4C[C@@H]5C[C@H]4CN5CCOc4ccc(Oc5c(-c6ccc(Br)cc6)sc6cc(O)ccc56)cc4)ccc3C2=O)C(=O)N1` [Compound 42], 0.53 nM; for `O=C1CCC(N2Cc3cc(OCCCOCCOCCOc4ccc(Oc5c(-c6ccc(Br)cc6)sc6cc(O)ccc56)cc4)ccc3C2=O)C(=O)N1` (centres unmarked) [Compound 43], 6.1 nM.
